Source: patent publication US5444042A, “Method of treatment of neurodegeneration with calpain inhibitors” (Cortex Pharmaceuticals, priority 1994, dated 1995)
Entries after “also recorded” stand apart in the source; their conditions may differ. Where a SMILES comes first, the peptide text is derived from it. The star is where a group is joined. Boc = CC(C)(C)OC(=O)*; CH2Cl = ClC*

Tests used:
[1] = target: Cathepsin B (Bos taurus, UniProt P07688); assay: Cathepsin B inhibition, Z-Arg-Arg-AFC (Table PKC1); assay type: biochemical; conditions: pH 6.0 phosphate buffer, substrate Z-Arg-Arg-AFC; read-out: Ki CB (Cathepsin B)
Description: Various concentrations of inhibitors in dimethylsulfoxide (DMSO) were added to the assay mixture, which contained buffer and substrate. The reaction was started by the addition of the enzyme and the hydrolysis rates were followed spectrophotometrically or fluorimetrically. 88 mM KH2 PO4, 12 mM Na2 HPO4, 1.33 mM EDTA, 2.7 mM cysteine, pH 6.0 was used as a buffer for cathepsin B; and 20 mM Hepes, 10 mM CaCl2, 10 mM β-mercaptoethanol, pH 7.2 buffer was utilized for calpain I and calpain II.
All peptide thioester hydrolysis rates were measured with assay mixtures containing 4,4'-dithiodipyridine [e324=19800 M-1 cm-1; Grasetti & Murray, Arch. Biochem. Biophys. 119, pp 41-49 (1967)]. Papain was assayed with Bz-Arg-AMC or Bz-Arg-NA [Kanaoka et al., Chem. Pharm. Bull. 25, 3126-3128 (1977)], and the AMC (7-amino-4-methylcoumarin) release was followed fluorimetrically (excitation at 380 nm, and emission at 460 nm). Cathepsin B was assayed with Z-Arg-Arg-AFC [Barrett and Kirschke, Methods Enzymol. 80, 535-561 (1981)], and the AFC (7-amino-4-trifluoromethylcoumarin) release was followed fluorimetrically (excitation at 400 nm, and emission at 505 nm). Calpain I from human erythrocytes and calpain II from rabbit were assayed using Suc-Leu-Tyr-AMC [Sasaki et al., J. Biol. Chem. 259, 12489-12494 (1984), hereby incorporated by reference], and the AMC (7-amino-4-methylcoumarin) release was followed fluorimetrically (excitation at 380 nm, and emission at 460 nm). Enzymatic hydrolysis rates were measured at various substrate and inhibitor concentrations, and Ki values were determined by Dixon plot.

[2] = test system: N18-RE-105 cells; assay: Glutamate-induced cell death, MTT conversion (Example 5); assay type: cell-based; conditions: 5 mM glutamate, 19 hours; for blue formazan product relative to control without glutamate: inhibitor 3 μg/ml
Description: Stock cultures of N18-RE-105 cells were maintained in Dulbecco's modified Eagle's medium (DMEM) containing 10% fetal bovine serum (FBS) and supplemented with hypoxanthine, aminopterin and thymidine (HAT). Subconfluent cultures were split and plated into 96-well plates. Twenty-four hours after plating the cells were exposed to fresh media containing glutamate and various concentrations of Calpain inhibitors. Control cells were not treated with glutamate. Conversion of MTT was measured 19 hours later as described. Nineteen hours after the onset of exposure, cell viability was quantitated by measuring the extent to which the cells convert 3(4,5-dimethylthiazol-2-yl)-2-5-diphenyltetrazolium bromide (MTT) to a blue formazan product, which occurs in the mitochondria of living but not dead cells (Pauwels et al., 1988). A higher absorbance is indicative of greater cell viability.

[3] = target: PP Elastase (Sus scrofa, UniProt P00772); assay: PP Elastase KI (Table 1B(ii)); assay type: biochemical
Chain of PP Elastase (P00772 27-266): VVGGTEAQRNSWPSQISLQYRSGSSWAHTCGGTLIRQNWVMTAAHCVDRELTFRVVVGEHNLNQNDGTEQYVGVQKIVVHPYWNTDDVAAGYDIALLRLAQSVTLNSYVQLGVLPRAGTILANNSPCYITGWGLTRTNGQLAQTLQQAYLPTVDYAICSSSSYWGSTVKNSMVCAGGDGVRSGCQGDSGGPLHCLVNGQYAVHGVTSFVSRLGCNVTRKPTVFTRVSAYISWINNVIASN
Source text: We tested the ability of an additional group of Peptide Keto-Compounds to inhibit several proteases in order to evaluate their specificity for Calpain.

[4] = test system: hippocampal slices; assay: Hippocampal slice survival after 10 min anoxia (Example 7A); assay type: cell-based, rat
Description: Hippocampal slices (400 um) were prepared from Sprague Dawley rats (6 to 7 weeks) and maintained in an interface chamber at 35° C. using conventional techniques, i.e., the lower surface of the slice received a constant perfusion (0.5 ml/min) of ACSF, while the upper surface was exposed to a moist atmosphere of O2 :CO2 (95%:5%) exchanged at a rate of 2 L/min. The ACSF medium contains (in mM): NaCl (124), KCl (3), KHPO4 (2.5), CaCl (3.4), NaHCO3 (26) and D-Glucose (10). Field excitatory post-synaptic responses were recorded from stratum radiatum of CAlb in response to stimulation of Schaffer-commissural fibers in CAla or CAlc. The depth of the recording electrode was optimized and evoked responses were collected at a rate of one evoked response every 30 seconds.
For the initial screening procedure, 14 to 16 slices are harvested from the hippocampus of a single rat and placed in a common ACSF bath. Each slice is tested in sequence to determine the magnitude of its pre-anoxic evoked response. Five stimulation pulses (each 0.1 ms (millisecond) in duration) were presented over a 15 second interval. The largest evoked response was noted and recorded for each slice.
After the one hour drug incubation period, the oxygen-enriched atmosphere of the chamber was made anoxic by substituting nitrogen for oxygen (N2 =95%; CO^2 =5%). The slices were retained in this anoxic environment for 10 minutes, following which the oxygen-enriched atmosphere (O^2 =95%; CO2 =5%) was reestablished.
The slices were given the opportunity to recover for 30 minutes following reoxygenation whereupon each was stimulated and the maximum evoked potential determined, as described above during the pre-anoxia period. Those slices which, after anoxia, produced a maximum evoked potential of greater than 50% of that observed prior to anoxia were defined as surviving slices.

[5] = test system: hippocampal slices; assay: Hippocampal slice evoked potential recovery after anoxia (Example 7B); assay type: cell-based, rat
Description: As in Example 7A, hippocampal slices (400 μm) were prepared from Sprague Dawley rats (6-7 weeks) and maintained in an interface chamber at 35° C. using conventional techniques, i.e. the lower surface of the slice received a constant perfusion (0.5 ml/min) of an artificial cerebrospinal fluid (ACSF), while the upper surface was exposed to a moist atmosphere of O2 :CO2 (95%:5%) exchanged at a rate of 2 L/min. The ACSF medium contains (in mM): NaCl (124), KCl (3), KHPO4 (1.25), MgSO4 (2.5), CaCl2 (3.4), NaHCO3 (26) and D-Glucose (10). Field excitatory post-synaptic responses were recorded from stratum radiatum of CA1b in response to stimulation of Schaffer-commissural fibers in CA1a or CA1c. The depth of the recording electrode was optimized and evoked responses were collected at a rate of one evoked response every 30 seconds.
After establishing a stable baseline of evoked responses (approximately 10 minutes), ACSF containing Calpain Inhibitor was washed into the chamber and slices were incubated for a period of one hour. After incubation, evoked responses were again recorded and the change in the amplitude of the responses from baseline levels was noted. No effect of the inhibitors tested on baseline evoked responses was observed.
For anoxia experiments, incubation in the drug-containing medium was followed by replacement of the O2 :CO2 (95%:5%) atmosphere with N2 :CO2 (95%:5%). Slices were exposed to this anoxic environment until disappearance of the pre-synaptic fiber volley and for two minutes (severe anoxia) longer (total time in anoxic environment approximately 7-8 minutes in control case). Effects of Calpain Inhibitors on the functional recovery of the slices after the anoxic episode were then measured. Recovery of the evoked potential (EPSP) slope and amplitude by the drug treated slices can be compared to control slices to determine the relative efficacy of various Calpain Inhibitors.

[6] = Concentration 100, ten minutes anoxia

CCC(NC(=O)[C@@H]1CCCN1C(=O)[C@H](C)NC(=O)[C@H](C)NC(=O)CCC(=O)OC)C(=O)C(=O)OC (mixture of isomers) [MeO-Suc-Ala-Ala-Pro-Abu-COOMe, MeO-Suc-Ala-Ala-Pro-DL-Abu-CO2 Me]
Ki [1]: 6 µM

CCOC(=O)C(=O)C(CC)NC(=O)[C@H](C)NC(=O)[C@H](C)NC(=O)OCc1ccccc1 (mixture of isomers) [Z-Ala-Ala-DL-Abu-COOEt, Z-Ala-Ala-DL-Abu-CO2 Et]
Ki [1]: 10 µM | blue formazan product relative to control without glutamate [2]: ≥ 100%

CCOC(=O)C(=O)[C@H](CC)NC(=O)[C@H](CC(C)C)NC(=O)OCc1ccccc1 (racemic) [Z-Leu-Abu-COOEt, Z-Leu-DL-Abu-COOEt]
Ki [3]: > 100 µM | protection of slices from anoxia (FIG. 3) ([4]; 10 minutes anoxic atmosphere, listed as CX218): protected from the effects of anoxia; also recorded: significantly more effective | Survival of slices after ten minutes anoxia ([4]; Dose 100 μM, incubation 1 hour): 70% | % Recovery of synaptic transmission after anoxia [5, 6]: 55% | recovery of EPSP amplitude from severe anoxia (FIG. 4) ([5]; severe anoxia, 2 minutes post fiber volley disappearance): superior to that seen with CI1

CCCC(NC(=O)[C@H](CC(C)C)NC(=O)OCc1ccccc1)C(=O)C(=O)OCC (mixture of isomers) [Z-Leu-Nva-COOEt, Z-Leu-DL-Nva-COOEt]
Ki [1]: 30 µM | Ki [3]: 2.3 µM

CC(C)CC(NC(=O)CNC(=O)OC(C)(C)C)C(=O)NC(Cc1ccccc1)C(=O)CCl (stereo not drawn) [Boc-Gly-Leu-Phe-CH2 Cl] (Boc-Gly-Leu-Phe-CH2Cl; configuration not given here)
Survival of slices after ten minutes anoxia ([4]; Dose 50 μM, incubation 1 hour): 50% | % Recovery of synaptic transmission after anoxia ([5]; Concentration 50, ten minutes anoxia): 30%

N=C(N)SCCCOc1oc(=O)c2ccccc2c1Cl [CiTprOIC, 4-chloro-3-(3-isothiureidopropoxy)isocoumarin]
blue formazan product relative to control without glutamate [2]: ≥ 100%

CC(=O)N[C@@H](CC(C)C)C(=O)N[C@@H](CC(C)C)C(=O)N[C@H](C=O)CCCNC(=N)N [Leupeptin, Ac-Leu-Leu-Arg-H, reference compound]
protection against glutamate toxicity ([2]; leupeptin 5 μg/ml): protect N18-RE-105 cells against glutamate toxicity | Survival of slices after ten minutes anoxia ([4]; Dose 1000 μM, incubation 3 hours): 50%

N=C(N)SCCCOc1oc(=O)c2cc(N)ccc2c1Cl [NH2 -CiTPrOIC (ACITIC), 7-amino-4-chloro-3-(3-isothiureidopropoxy)isocoumarin]
blue formazan product relative to control without glutamate [2]: ≥ 100% | Survival of slices after ten minutes anoxia ([4]; Dose 20 μM, incubation 1 hour): 50% | % Recovery of synaptic transmission after anoxia ([5]; Concentration 20, ten minutes anoxia): 60%

CCCCC(NC(=O)C(CC(C)C)NC(=O)OCc1ccccc1)C(=O)C(=O)OCC (stereo not drawn) [Z-Leu-Nle-COOEt, Z-Leu-NLeu-CO2 Et]
Ki [3]: 2.2 µM

CCOC(=O)C(=O)C(Cc1ccccc1)NC(=O)C(CC(C)C)NC(=O)OCc1ccccc1 (stereo not drawn) [Z-Leu-Phe-COOEt]
Ki [3]: > 100 µM | % Recovery of synaptic transmission after anoxia [5, 6]: 38% | period of anoxia required to produce fiber volley disappearance (FIG. 6) ([5]; hippocampal slices): substantially lengthens the period of exposure to anoxia required to produce FVD
